Measured values published in patent US20250222009A1, “DINUCLEAR GOLD(I) COMPLEXES FOR TREATING CANCER” (KING FAHD UNIVERSITY OF PETROLEUM AND MINERALS, priority 2024, published 2025).

Legend:
A549 (lung cancer cells) = test: MTT cytotoxicity assay, A549; format: cell-based, human; settings: 72 h
Experimental: (§1) The human epithelial ovarian cancer A2780 cell line and its cisplatin-resistant clone A2780cis were obtained from Sigma-Aldrich (Milano, Italy). A2780cis cells were continuously exposed to 1 μM cisplatin to maintain cisplatin resistance. A549 cells (Human non-small cell lung cancer), MCF7 (metastatic breast cancer), PC3 (highly aggressive metastatic prostate cancer), and MG63 (osteosarcoma) were obtained from the American Type Culture Collection (ATCC). Cells were authenticated in laboratory using the PowerPlex 16 HS System. A2780, A2780cis, and PC3 cells were cultured in RPMI-1640 medium; MG63 and MCF7 cells were cultured in DMEM, and A549 cells were cultured in F12 NUT-MIX. The culture medium contained about 10% fetal bovine serum (FBS) (Gibco, Thermo Fisher Scientific, Monza, Italy), about 1% (v/v) of penicillin (10,000 units/mL)-streptomycin (10 mg/mL), and about 1% (v/v) L-glutamine (200 mM) (all from Sigma-Aldrich). Cells were cultured at 37° C. in a 5% CO2, fully humidified atmosphere.
(§2) 2.5×10^3 (PC3, MG63, MCF7) or 4.0×10^3 (A2780, A2780cis, A549) cells were seeded in 96-well microplates in 100 μL culture medium. Cells, allowed to adhere for 24 h, were then treated in triplicate with increasing concentrations of gold compounds. Cisplatin was included as a reference drug. Cell viability was evaluated using 3-(4,5-dimethylthiazol-2-yl)-2,5-diphenyltetrazolium bromide (MTT) assay (Sigma-Aldrich) after 72 h of treatment. Half maximal inhibitory concentrations (IC50), IC25, and IC75 were calculated using the CalcuSyn software version 2 (Biosoft, Ferguson, MO, USA) (See: Chou, T. C.; Talalay, P. Quantitative Analysis of Dose-Effect Relationships: The Combined Effects of Multiple Drugs or Enzyme Inhibitors. Adv. Enzyme Regul. 1984, 22, 27-55, which is incorporated herein by reference in its entirety). Fold resistance was calculated as the ratio of the IC50 of the A2780cis to that of the parental cell line A2780. Alternatively, cell viability was assayed by crystal violet staining (See: Feoktistova, M.; Geserick, P.; Leverkus, M. Crystal Violet Assay for Determining Viability of Cultured Cells. Cold Spring Harb Protoc 2016, 2016, pdb.prot087379, which is incorporated herein by reference in its entirety). Alternatively, after drug treatment, the culture Medium was removed, cells washed, fixed, and stained, and the Crystal Violet solution lasted 20 minutes (See: Sulaiman, A. A. A.; Casagrande, N.; Borghese, C.; Corona, G.; Isab, A. A.; Ahmad, S.; Aldinucci, D.; Altaf M. Design, Synthesis, and Preclinical Activity in Ovarian Cancer Models of New Phosphanegold(I)—N-Heterocyclic Carbene Complexes. J Med Chem 2022, 65, 14424-14440, which is incorporated herein by reference in its entirety).

MCF-7 (breast cancer) = test: MTT cytotoxicity assay, MCF-7; format: cell-based; settings: 72 h, mean, SD in next cell
Experimental: as §1, §2

MG-63 (osteosarcoma) = test: MTT cytotoxicity assay, MG-63; format: cell-based; settings: 72 h, mean, SD in next cell
Experimental: as §1
2.5×10^3 (PC3, MG63, MCF7) or 4.0×10^3 (A2780, A2780cis, A549) cells were seeded in 96-well microplates in 100 μL culture medium. Cells, allowed to adhere for 24 h, were then treated in triplicate with increasing concentrations of gold compounds. Cisplatin was included as a reference drug. Cell viability was evaluated using 3-(4,5-dimethylthiazol-2-yl)-2,5-diphenyltetrazolium bromide (MTT) assay (Sigma-Aldrich) after 72 h of treatment. Half maximal inhibitory concentrations (IC50), IC25, and IC75 were calculated using the CalcuSyn software version 2 (Biosoft, Ferguson, MO, USA) (See: Chou, T. C.; Talalay, P. Quantitative Analysis of Dose-Effect Relationships: The Combined Effects of Multiple Drugs or Enzyme Inhibitors. Adv. Enzyme Regul. 1984, 22, 27-55, which is incorporated herein by reference in its entirety). Fold resistance was calculated as the ratio of the IC50 of the A2780cis to that of the parental cell line A2780. […]

[1] = tested on: A2780cis (cisplatin-resistant clone of A2780); test: MTT cytotoxicity assay, A2780cis; format: cell-based, human
Experimental: as §1, §2

BAX = BAX expression, flow cytometry; format: cell-based, human; settings: A549, 72 h
Experimental: 2.0×10^5 A549 cells were seeded in 6-well plates in a complete medium and treated with the complex 3. Assay results were detected by flow cytometry on a BD FACSCanto II flow cytometer. Data were analyzed using BD FACSDiva v.8.0.1 software (BD Biosciences) unless otherwise indicated. Tumor cells were treated for 72 h with complex 3, then stained for 15 minutes with FITC Annexin-V (Thermo Fisher Scientific) and 7AAD (BD Pharmingen, Milan, Italy). Activated caspase-3,7 was detected using the CaspaTag Caspase-3,7 assay (Merck Millipore) after an incubation of 24 h with complex 3. For B-cell lymphoma/leukemia-2 protein (Bcl-2) and Bcl-2 associated x protein (Bax) analysis, cells were treated for 72 h with C3, then fixed and permeabilized (FIX & PERM Cell Fixation & Cell Permeabilization Kit, Life Technologies). […] The distribution of cells in different cell cycle phases was quantified using ModFit LT 4.0 software (Verity Software House, Topsham, ME, USA) (See: Sulaiman, A. A. A.; Casagrande, N.; Borghese, C.; Corona, G.; Isab, A. A.; Ahmad, S.; Aldinucci, D.; Altaf M. Design, Synthesis, and Preclinical Activity in Ovarian Cancer Models of New Phosphanegold(I)—N-Heterocyclic Carbene Complexes. J Med Chem 2022, 65, 14424-14440, which is incorporated herein by reference in its entirety). […]

20S proteasome = test: 20S Proteasome Activity Assay in treated cell lysates; format: cell-based, human; settings: A549 cells treated 4 h
Experimental: Cells were treated with complex 3 (4 h), and then cells were lysed in 50 mM Tris-HCl pH 7.6, 0.1% Triton X-100, 0.9% NaCl to obtain the Proteasome activity (EC 3.4.25.1). The proteasome activity was tested using the 20S Proteasome Activity Assay kit APT280 (Merck Millipore) and a computer-interfaced GeniusPlus microplate reader (Tecan Trading AG, Switzerland). The activity was normalized to the protein concentration and expressed as a percentage of control (untreated cells).

SMILES: CC(C)c1cccc(C(C)C)c1-n1ccn(-c2c(C(C)C)cccc2C(C)C)[c]1=[Au-][P+](CCNCC[P+]([Au-]=[c]1n(-c2c(C(C)C)cccc2C(C)C)ccn1-c1c(C(C)C)cccc1C(C)C)(C1CCCCC1)C1CCCCC1)(C1CCCCC1)C1CCCCC1 [Complex 3, [(Au(IPr))2(C28H24P2)](PF6)2]
- IC25 A549 (A549 (lung cancer cells)): 60 nM
- IC75 A549 (A549 (lung cancer cells)): 600 nM
- IC50 (A549 (lung cancer cells); mean (SD)): 130 nM
- IC50 (MCF-7 (breast cancer)): 430 nM
- IC50 (MG-63 (osteosarcoma)): 160 nM
- Fold resistance (A2780cis/A2780) ([1]; IC50 A2780cis/IC50 A2780): 2.19
- IC50 ([1]; MTT, 72 h, mean, SD in next cell): 240 nM
- pro-apoptotic BAX expression (BAX): induced
- 20S proteasome activity (20S proteasome): inhibited in a dose-dependent manner
